# Organism: Rattus norvegicus
# Assay: DrugMatrix - Regimen: Daily Repeat
# Format: toxicity, organism-based, Sprague-Dawley
# Set-up: regimen Daily Repeat, gender Male, age 6-8 weeks
# Conditions: in vivo, po, route oral GAVAGE, […]; for ABSOLUTE BASOPHIL / ABSOLUTE EOSINOPHIL / ABSOLUTE LYMPHOCYTE / ABSOLUTE MONOCYTE / ABSOLUTE SEGMENTED NEUTROPHIL / BASOPHIL / EOSINOPHIL / ERYTHROCYTE COUNT / HEMATOCRIT / HEMOGLOBIN / LEUKOCYTE COUNT / LYMPHOCYTE / MEAN CORPUSCULAR HEMOGLOBIN / MEAN CORPUSCULAR HEMOGLOBIN CONCENTRATION / MEAN CORPUSCULAR VOLUME / MONOCYTE / NEUTROPHIL / NUCLEATED RED BLOOD CELLS / PLATELET COUNT: tissue Blood; for ALANINE AMINOTRANSFERASE / ALBUMIN / ALKALINE PHOSPHATASE / ASPARTATE AMINOTRANSFERASE / BLOOD UREA NITROGEN / CARBON DIOXIDE / CHLORIDE / CHOLESTEROL / CREATINE PHOSPHOKINASE / CREATININE / GLUCOSE / LACTATE DEHYDROGENASE / LIPASE / PHOSPHORUS / POTASSIUM / SODIUM / TOTAL BILIRUBIN / TOTAL PROTEIN / URIC ACID: tissue Plasma
# [1] = 12 mg/kg, 120 h, dose level Low, time 5 day
# [2] = 75 mg/kg, 72 h, dose level High, time 3 day
# [3] = 75 mg/kg, 120 h, dose level High, time 5 day
smiles,measurement,setting,value
CO[C@H]1/C=C/O[C@@]2(C)Oc3c(C)c(O)c4c(O)c(c(/C=N/N5CCN(C6CCCC6)CC5)c(O)c4c3C2=O)NC(=O)/C(C)=C\C=C\[C@H](C)[C@H](O)[C@@H](C)[C@@H](O)[C@@H](C)[C@H](OC(C)=O)[C@@H]1C [RIFAPENTINE],ABSOLUTE BASOPHIL,[1],0 CELLS/uL
same,ABSOLUTE EOSINOPHIL,[1],0 CELLS/uL
same,ABSOLUTE LYMPHOCYTE,[1],14120.67 CELLS/uL
same,ABSOLUTE MONOCYTE,[1],159.67 CELLS/uL
same,ABSOLUTE SEGMENTED NEUTROPHIL,[1],1686.33 CELLS/uL
same,BASOPHIL,[1],0%
same,EOSINOPHIL,[1],0%
same,ERYTHROCYTE COUNT,[1],5.71 x10E6/uL
same,HEMATOCRIT,[1],35.8%
same,HEMOGLOBIN,[1],13.33 G/DL
same,LEUKOCYTE COUNT,[1],15.97 x10E3/uL
same,LYMPHOCYTE,[1],88.33%
same,MEAN CORPUSCULAR HEMOGLOBIN,[1],23.4 pg
same,MEAN CORPUSCULAR HEMOGLOBIN CONCENTRATION,[1],37.3 G/DL
same,MEAN CORPUSCULAR VOLUME,[1],62.73 fL
same,MONOCYTE,[1],1%
same,NEUTROPHIL,[1],10.67%
same,NUCLEATED RED BLOOD CELLS,[1],0 /100WBC
same,PLATELET COUNT,[1],1349 x10E3/uL
same,ALANINE AMINOTRANSFERASE,[1],49.33 u/L
same,ALBUMIN,[1],4.07 G/DL
same,ALKALINE PHOSPHATASE,[1],549.33 u/L
same,ASPARTATE AMINOTRANSFERASE,[1],91.67 u/L
same,BLOOD UREA NITROGEN,[1],16 mg/dL
same,CARBON DIOXIDE,[1],28 mmol/L
same,CHLORIDE,[1],102.67 MEQ/L
same,CHOLESTEROL,[1],54.33 mg/dL
same,CREATINE PHOSPHOKINASE,[1],385.33 u/L
same,CREATININE,[1],0.16 mg/dL
same,GLUCOSE,[1],167.67 mg/dL
same,LACTATE DEHYDROGENASE,[1],391.67 u/L
same,LIPASE,[1],9.67 u/L
same,PHOSPHORUS,[1],11.2 mg/dL
same,POTASSIUM,[1],6.39 MEQ/L
same,SODIUM,[1],142.5 MEQ/L
same,TOTAL BILIRUBIN,[1],0.3 mg/dL
same,TOTAL PROTEIN,[1],5.9 G/DL
same,URIC ACID,[1],1.7 mg/dL
same,ABSOLUTE BASOPHIL,[2],0 CELLS/uL
same,ABSOLUTE EOSINOPHIL,[2],0 CELLS/uL
same,ABSOLUTE LYMPHOCYTE,[2],7973.67 CELLS/uL
same,ABSOLUTE MONOCYTE,[2],130.33 CELLS/uL
same,ABSOLUTE SEGMENTED NEUTROPHIL,[2],596 CELLS/uL
same,BASOPHIL,[2],0%
same,EOSINOPHIL,[2],0%
same,ERYTHROCYTE COUNT,[2],5.11 x10E6/uL
same,HEMATOCRIT,[2],32.07%
same,HEMOGLOBIN,[2],12.17 G/DL
same,LEUKOCYTE COUNT,[2],8.7 x10E3/uL
same,LYMPHOCYTE,[2],92%
same,MEAN CORPUSCULAR HEMOGLOBIN,[2],23.8 pg
same,MEAN CORPUSCULAR HEMOGLOBIN CONCENTRATION,[2],37.97 G/DL
same,MEAN CORPUSCULAR VOLUME,[2],62.73 fL
same,MONOCYTE,[2],1.33%
same,NEUTROPHIL,[2],6.67%
same,NUCLEATED RED BLOOD CELLS,[2],0 /100WBC
same,PLATELET COUNT,[2],1158.67 x10E3/uL
same,ALANINE AMINOTRANSFERASE,[2],71.33 u/L
same,ALBUMIN,[2],4.07 G/DL
same,ALKALINE PHOSPHATASE,[2],536.33 u/L
same,ASPARTATE AMINOTRANSFERASE,[2],84.33 u/L
same,BLOOD UREA NITROGEN,[2],11 mg/dL
same,CARBON DIOXIDE,[2],29.33 mmol/L
same,CHLORIDE,[2],104.33 MEQ/L
same,CHOLESTEROL,[2],73 mg/dL
same,CREATINE PHOSPHOKINASE,[2],243 u/L
same,CREATININE,[2],0.1 mg/dL
same,GLUCOSE,[2],158.33 mg/dL
same,LACTATE DEHYDROGENASE,[2],88 u/L
same,LIPASE,[2],8.67 u/L
same,PHOSPHORUS,[2],11.53 mg/dL
same,POTASSIUM,[2],6.14 MEQ/L
same,SODIUM,[2],147.17 MEQ/L
same,TOTAL BILIRUBIN,[2],0.6 mg/dL
same,TOTAL PROTEIN,[2],5.77 G/DL
same,URIC ACID,[2],1.13 mg/dL
same,ABSOLUTE BASOPHIL,[3],0 CELLS/uL
same,ABSOLUTE EOSINOPHIL,[3],83.33 CELLS/uL
same,ABSOLUTE LYMPHOCYTE,[3],14410.33 CELLS/uL
same,ABSOLUTE MONOCYTE,[3],288.33 CELLS/uL
same,ABSOLUTE SEGMENTED NEUTROPHIL,[3],1718 CELLS/uL
same,BASOPHIL,[3],0%
same,EOSINOPHIL,[3],0.67%
same,ERYTHROCYTE COUNT,[3],6.37 x10E6/uL
same,HEMATOCRIT,[3],38.63%
same,HEMOGLOBIN,[3],14 G/DL
same,LEUKOCYTE COUNT,[3],16.5 x10E3/uL
same,LYMPHOCYTE,[3],87%
same,MEAN CORPUSCULAR HEMOGLOBIN,[3],21.97 pg
same,MEAN CORPUSCULAR HEMOGLOBIN CONCENTRATION,[3],36.2 G/DL
same,MEAN CORPUSCULAR VOLUME,[3],60.67 fL
same,MONOCYTE,[3],1.67%
same,NEUTROPHIL,[3],10.67%
same,NUCLEATED RED BLOOD CELLS,[3],0 /100WBC
same,PLATELET COUNT,[3],1299.67 x10E3/uL
same,ALANINE AMINOTRANSFERASE,[3],72 u/L
same,ALBUMIN,[3],4.13 G/DL
same,ALKALINE PHOSPHATASE,[3],446.67 u/L
same,ASPARTATE AMINOTRANSFERASE,[3],99.33 u/L
same,BLOOD UREA NITROGEN,[3],13.67 mg/dL
same,CARBON DIOXIDE,[3],27.67 mmol/L
same,CHLORIDE,[3],101 MEQ/L
same,CHOLESTEROL,[3],39 mg/dL
same,CREATINE PHOSPHOKINASE,[3],886.67 u/L
same,CREATININE,[3],0.13 mg/dL
same,GLUCOSE,[3],164 mg/dL
same,LACTATE DEHYDROGENASE,[3],219.67 u/L
same,LIPASE,[3],7.67 u/L
same,PHOSPHORUS,[3],11.07 mg/dL
same,POTASSIUM,[3],6.28 MEQ/L
same,SODIUM,[3],141.1 MEQ/L
same,TOTAL BILIRUBIN,[3],0.4 mg/dL
same,TOTAL PROTEIN,[3],5.87 G/DL
same,URIC ACID,[3],1.47 mg/dL
